Publication PMC8286840, “Identifying SARS-CoV-2 antiviral compounds by screening for small molecule inhibitors of Nsp3 papain-like protease” (Biochemical Journal, 2021)
Where a name gives a salt, the structure may show the parent alone. Read-outs that look alike come from different tables or passages of the source.

Tests used:
[1] = molecular target: T1, SARS-CoV-2 PLpro (nsp3 1564–1878) (Severe acute respiratory syndrome coronavirus 2, UniProt P0DTD1); experiment: biochemical; parameters: FRET-quenched peptide (Pro3) cleavage by PLpro, 10 min pre-incubation, slope over 20 min, normalised to no-compound control; conditions: low concentration screen, read-out: % of control remaining
[2] = molecular target: T1, SARS-CoV-2 PLpro (nsp3 1564–1878); experiment: biochemical; parameters: FRET-quenched peptide (Pro3) cleavage by PLpro, 10 min pre-incubation, slope over 20 min, normalised to no-compound control; conditions: high concentration screen, read-out: % of control remaining

SMILES: CC[C@H](C)[C@H](NC(=O)[C@H](Cc1ccc(O)cc1)NC(=O)[C@@H](NC(=O)[C@H](CCCNC(=N)N)NC(=O)[C@@H](N)CC(=O)O)C(C)C)C(=O)N[C@@H](Cc1c[nH]cn1)C(=O)N1CCC[C@H]1C(=O)O [Angiotensin (1-7)]
- remaining activity at 1.25 µM ([1]; Well no.=6176): 96.1%
- remaining activity at 1.25 µM ([1]; Well no.=8368): 99.7%
- remaining activity at 3.75 µM ([2]; Well no.=6176): 96.5%
- remaining activity at 3.75 µM ([2]; Well no.=8368): 96.1%

SMILES: CC(=O)O[C@]1(C(C)=O)CC[C@H]2[C@@H]3C[C@H](C)C4=CC(=O)CC[C@]4(C)[C@H]3CC[C@@]21C [Medroxyprogesterone 17-Acetate]
- remaining activity at 1.25 µM ([1]; Well no.=1949): 103%
- remaining activity at 3.75 µM ([2]; Well no.=1949): 104%

SMILES: Clc1ccc(N2C[C@H]3CC[C@@H](C2)N3)nn1 [DBO-83]
- remaining activity at 1.25 µM ([1]; Well no.=630): 63.4%
- remaining activity at 3.75 µM ([2]; Well no.=630): 98.1%

SMILES: CCCCCCCC/C=C\CCCCCCCC(=O)OC[C@H](CO)OC(C)=O [1-Oleoyl-2-acetyl-glycerol]
- remaining activity at 1.25 µM ([1]; Well no.=4480): 97.7%
- remaining activity at 3.75 µM ([2]; Well no.=4480): 99.2%

SMILES: c1cnc2c(c1)ccc1cccnc12 [1,10-Phenanthroline monohydrate]
- remaining activity at 1.25 µM ([1]; Well no.=1259): 101%
- remaining activity at 3.75 µM ([2]; Well no.=1259): 101%

SMILES: C=CC(=O)N1CC/C(=C\c2ccc(F)c([N+](=O)[O-])c2)C(=O)/C(=C/c2ccc(F)c([N+](=O)[O-])c2)C1 [VLX1570]
- remaining activity at 1.25 µM ([1]; Well no.=7794): 95.6%
- remaining activity at 3.75 µM ([2]; Well no.=7794): 95.4%

SMILES: CC[C@@H](C(=O)O)[C@@H]1O[C@@H]([C@@H](C)[C@H](O)[C@H](C)C(=O)[C@H](CC)[C@H]2O[C@]3(C=C[C@@H](O)[C@]4(CC[C@@](C)([C@H]5CC[C@](O)(CC)[C@H](C)O5)O4)O3)[C@H](C)C[C@@H]2C)[C@@H](C)C[C@@H]1C [Narasin]
- remaining activity at 1.25 µM ([1]; Well no.=3258): 94.4%
- remaining activity at 3.75 µM ([2]; Well no.=3258): 96%

SMILES: C[C@H](N[C@@H](CCc1ccccc1)C(=O)O)C(=O)N1CCC[C@H]1C(=O)O [Enalaprilat (dihydrate)]
- remaining activity at 1.25 µM ([1]; Well no.=7842): 94.7%
- remaining activity at 3.75 µM ([2]; Well no.=7842): 97.1%

SMILES: Nc1ncnc2c1ncn2[C@@H]1O[C@H](CO)[C@@H](O)[C@@H]1O [Vidarabine]
- remaining activity at 1.25 µM ([1]; Well no.=2046): 107%
- remaining activity at 1.25 µM ([1]; Well no.=8006): 93.6%
- remaining activity at 3.75 µM ([2]; Well no.=2046): 110%
- remaining activity at 3.75 µM ([2]; Well no.=8006): 95.5%

SMILES: C[N+](C)(C)CC=O [Betaine aldehyde chloride]
- remaining activity at 1.25 µM ([1]; Well no.=125): 96.6%
- remaining activity at 3.75 µM ([2]; Well no.=125): 102%

SMILES: CCCc1cc(C(N)=S)ccn1 [Prothionamide]
- remaining activity at 1.25 µM ([1]; Well no.=2147): 97%
- remaining activity at 3.75 µM ([2]; Well no.=2147): 99.4%

SMILES: C[C@@H](Oc1cc(-c2cnn(C3CCNCC3)c2)cnc1N)c1c(Cl)ccc(F)c1Cl [Crizotinib]
- remaining activity at 1.25 µM ([1]; Well no.=5612): 99.8%
- remaining activity at 3.75 µM ([2]; Well no.=5612): 101%

SMILES: CC1(C)CNc2cc(NC(=O)c3cccnc3NCc3ccncc3)ccc21 [Motesanib]
- remaining activity at 1.25 µM ([1]; Well no.=2697): 104%
- remaining activity at 3.75 µM ([2]; Well no.=2697): 103%

SMILES: CC(C)=CCC[C@](C)(O)[C@H]1CC[C@]2(C)[C@@H]1[C@H](O)C[C@@H]1[C@@]3(C)CC[C@H](O)C(C)(C)[C@@H]3[C@@H](O)C[C@]12C [(20S)-Protopanaxatriol]
- remaining activity at 1.25 µM ([1]; Well no.=8387): 96.6%
- remaining activity at 3.75 µM ([2]; Well no.=8387): 91.4%

SMILES: CCCCC/C=C\C[C@@H](O)/C=C/C=C/C=C\[C@@H](O)CCCC(=O)O [Leukotriene B4]
- remaining activity at 1.25 µM ([1]; Well no.=4423): 101%
- remaining activity at 3.75 µM ([2]; Well no.=4423): 97.4%

SMILES: CNC(=C[N+](=O)[O-])NCCSCc1csc(CN(C)C)n1 [Nizatidine]
- remaining activity at 1.25 µM ([1]; Well no.=4628): 101%
- remaining activity at 1.25 µM ([1]; Well no.=7378): 99.2%
- remaining activity at 3.75 µM ([2]; Well no.=4628): 99.2%
- remaining activity at 3.75 µM ([2]; Well no.=7378): 98.9%

SMILES: COc1cc(OC)c(C=C2C(=O)Nc3ccccc32)c(OC)c1 [IC261]
- remaining activity at 1.25 µM ([1]; Well no.=2506): 103%
- remaining activity at 3.75 µM ([2]; Well no.=2506): 103%

SMILES: CC(C)(C)NCC(O)c1ccc(O)cc1Cl (stereo not drawn) [HOKU-81]
- remaining activity at 1.25 µM ([1]; Well no.=8051): 93%
- remaining activity at 3.75 µM ([2]; Well no.=8051): 96.3%

SMILES: NC(N)=NCCCCN=C(N)N [Arcaine sulfate]
- remaining activity at 1.25 µM ([1]; Well no.=293): 99.2%
- remaining activity at 3.75 µM ([2]; Well no.=293): 96.8%

SMILES: COc1ccc2cc1Oc1ccc(cc1)C[C@H]1c3cc(c(OC)cc3CCN1C)Oc1c(OC)c(OC)cc3c1[C@H](C2)N(C)CC3 [Tetrandrine]
- remaining activity at 1.25 µM ([1]; Well no.=3182): 103%
- remaining activity at 3.75 µM ([2]; Well no.=3182): 99.4%

SMILES: CCCCCCCCCCCCCCCCOCC(CO)OC(C)=O (stereo not drawn) [1-Hexadecyl-2-O-acetyl-glycerol]
- remaining activity at 1.25 µM ([1]; Well no.=4238): 95.2%
- remaining activity at 3.75 µM ([2]; Well no.=4238): 98.7%

SMILES: COc1ccc(-n2[nH]c3c(cnc4ccccc43)c2=O)cc1 [CGS 9895]
- remaining activity at 1.25 µM ([1]; Well no.=5590): 99.6%
- remaining activity at 3.75 µM ([2]; Well no.=5590): 96.5%

SMILES: CN1CCc2c(c3ccccc3n2Cc2ccc(C(=O)NO)cc2)C1 [Tubastatin A HCl]
- remaining activity at 1.25 µM ([1]; Well no.=4962): 90.5%
- remaining activity at 3.75 µM ([2]; Well no.=4962): 88.7%

SMILES: CN(N=O)C(=O)N[C@@H](C=O)[C@@H](O)[C@H](O)[C@H](O)CO [Streptozocin]
- remaining activity at 1.25 µM ([1]; Well no.=3317): 100%
- remaining activity at 3.75 µM ([2]; Well no.=3317): 103%

SMILES: N[C@H](C(=O)O)[C@H](O)C(=O)O (racemic) [DL-threo-beta-hydroxyaspartic acid]
- remaining activity at 1.25 µM ([1]; Well no.=418): 96.9%
- remaining activity at 3.75 µM ([2]; Well no.=418): 95.6%

SMILES: Cc1cccc(C#Cc2ccccc2)n1 [6-Methyl-2-(phenylethynyl)pyridine hydrochloride]
- remaining activity at 1.25 µM ([1]; Well no.=834): 98.2%
- remaining activity at 3.75 µM ([2]; Well no.=834): 95%

SMILES: C[C@H]1C[C@H]2[C@@H]3CCC4=CC(=O)C=C[C@]4(C)[C@@]3(Cl)[C@@H](O)C[C@]2(C)[C@@]1(O)C(=O)CO [Beclomethasone]
- remaining activity at 1.25 µM ([1]; Well no.=356): 95.3%
- remaining activity at 3.75 µM ([2]; Well no.=356): 100%

SMILES: C[C@@H](C(=O)O)N(C)C(=O)OCC1c2ccccc2-c2ccccc21 [Fmoc-N-Me-Ala-OH]
- remaining activity at 1.25 µM ([1]; Well no.=7976): 91.3%
- remaining activity at 3.75 µM ([2]; Well no.=7976): 92.8%

SMILES: CC(C)(C)c1nc2c3cc[nH]c(=O)c3c3cc(F)ccc3c2[nH]1 [JAK Inhibitor I]
- remaining activity at 1.25 µM ([1]; Well no.=2455): 101%
- remaining activity at 3.75 µM ([2]; Well no.=2455): 103%

SMILES: O=C(O)/C=C/c1ccc(-c2ccc(O)c(C34CC5CC(CC(C5)C3)C4)c2)cc1 [Adarotene]
- remaining activity at 1.25 µM ([1]; Well no.=6342): 101%
- remaining activity at 3.75 µM ([2]; Well no.=6342): 99%

SMILES: COc1ccc2c(c1)/C(=C/c1cnc[nH]1)C(=O)N2 [SU9516]
- remaining activity at 1.25 µM ([1]; Well no.=2660): 96.5%
- remaining activity at 3.75 µM ([2]; Well no.=2660): 94.4%

SMILES: Fc1ccc(-c2nc3n(c2-c2ccncc2)CCS3)cc1 [SKF-86002]
- remaining activity at 1.25 µM ([1]; Well no.=2652): 96.2%
- remaining activity at 3.75 µM ([2]; Well no.=2652): 97.9%

SMILES: CC(C)(N)C(=O)N[C@H](COCc1ccccc1)C(=O)N1CCC2(CC1)CN(S(C)(=O)=O)c1ccccc12 [Ibutamoren (Mesylate)]
- remaining activity at 1.25 µM ([1]; Well no.=6186): 98.5%
- remaining activity at 3.75 µM ([2]; Well no.=6186): 94.2%
